Where a name gives a salt, the structure may show the parent alone.
Target: AaDOP2 (Aedes aegypti, UniProt H6D5H2)
Test: AaDOP2 antagonist screen of the LOPAC1280 library (HEK-CRELuc-Aadop2 cells, luminescence)
Type: cell-based
Conditions: not given

AaDOP2, sequence (H6D5H2 1-476): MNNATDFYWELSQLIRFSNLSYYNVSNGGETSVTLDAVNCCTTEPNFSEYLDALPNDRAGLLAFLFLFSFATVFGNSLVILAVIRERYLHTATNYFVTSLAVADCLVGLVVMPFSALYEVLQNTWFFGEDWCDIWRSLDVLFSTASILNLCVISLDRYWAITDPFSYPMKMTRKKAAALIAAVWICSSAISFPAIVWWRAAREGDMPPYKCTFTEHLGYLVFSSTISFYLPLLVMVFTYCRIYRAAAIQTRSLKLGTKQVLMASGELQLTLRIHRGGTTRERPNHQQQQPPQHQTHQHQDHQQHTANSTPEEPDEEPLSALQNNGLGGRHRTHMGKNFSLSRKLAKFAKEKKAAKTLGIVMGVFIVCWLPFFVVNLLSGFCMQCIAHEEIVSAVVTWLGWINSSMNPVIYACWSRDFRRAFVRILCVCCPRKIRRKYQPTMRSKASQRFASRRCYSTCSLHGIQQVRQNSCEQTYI

For `O=c1c(-c2ccc(O)cc2)coc2cc(O)ccc12` [Compound 410, Daidzein], which “Compound effect (percent receptor signaling in presence of test compound, relative lux units relative to the SCH23390 control)” value is on record?
The value was 47.

For `CN[C@H](CC(=O)O)C(=O)O` [Compound 758, N-Methyl-D-aspartic acid], which “Compound effect (percent receptor signaling in presence of test compound, relative lux units relative to the SCH23390 control)” value is on record?
The value was 97.

For `CC1=C[C@@H]2c3cccc4[nH]cc(c34)C[C@H]2N(C)C1` [Compound 141, Agroclavine], which “Compound effect (percent receptor signaling in presence of test compound, relative lux units relative to the SCH23390 control)” value is on record?
The value was 98.

Which “Compound effect (percent receptor signaling in presence of test compound, relative lux units relative to the SCH23390 control)” value does the source give for `Oc1ccc(C2CNCCc3c2cc(O)c(O)c3Cl)cc1` (stereo not shown) [Compound 528, Fenoldopam bromide] here?
Its value is 112.

With `CN1CCC[C@H]1c1cccnc1.O=C(O)C(O)C(O)C(=O)O.O=C(O)C(O)C(O)C(=O)O` [Compound 857, (-)-Nicotine hydrogen tartrate salt] as the compound, how does the “Compound effect (percent receptor signaling in presence of test compound, relative lux units relative to the SCH23390 control)” value read?
Its value is 92.

Which “Compound effect (percent receptor signaling in presence of test compound, relative lux units relative to the SCH23390 control)” value does the source give for `C[C@H]1CCC/C=C/[C@@H]2C[C@H](O)C[C@H]2[C@H](O)/C=C/C(=O)O1` [Compound 185, Brefeldin A from Penicillium brefeldianum] here?
The value was 124.

For `Fc1ccc(C(c2ccc(F)cc2)N2CCN(C/C=C/c3ccccc3)CC2)cc1` [Compound 533, Flunarizine dihydrochloride], which “Compound effect (percent receptor signaling in presence of test compound, relative lux units relative to the SCH23390 control)” value is on record?
Its value is 71.

With `CC(C)OC(=O)C(C)(C)Oc1ccc(C(=O)c2ccc(Cl)cc2)cc1` [Compound 521, Fenofibrate] as the compound, how does the “Compound effect (percent receptor signaling in presence of test compound, relative lux units relative to the SCH23390 control)” value read?
The value was 95.

With `CC1Cc2cc3c(cc2C(c2ccc(N)cc2)=NN1)OCO3` (stereo not shown) [Compound 569, GYKI 52895] as the compound, how does the “Compound effect (percent receptor signaling in presence of test compound, relative lux units relative to the SCH23390 control)” value read?
The value was 71.

How did the “Compound effect (percent receptor signaling in presence of test compound, relative lux units relative to the SCH23390 control)” value turn out when `O=C(O)C1CCCNC1` (racemic) [Compound 5, (±)-Nipecotic acid] was run?
Its value is 99.

`CCN1CCC[C@H]1CNC(=O)c1cc(S(N)(=O)=O)ccc1OC` [Compound 1109, (-)-Sulpiride] was tested. Which “Compound effect (percent receptor signaling in presence of test compound, relative lux units relative to the SCH23390 control)” value did it give?
The value was 87.

For `C[N+](C)(C)CC#CCN1CCCC1=O` [Compound 912, Oxotremorine methiodide], which “Compound effect (percent receptor signaling in presence of test compound, relative lux units relative to the SCH23390 control)” value is on record?
Its value is 99.

Which “Compound effect (percent receptor signaling in presence of test compound, relative lux units relative to the SCH23390 control)” value does the source give for `Cl.OCc1c[nH]cn1` [Compound 581, 4-Imidazolemethanol hydrochloride] here?
Its value is 114.

For `CCCC(=O)NCCc1c2n(c3ccc(OC)cc13)CCCc1ccccc1-2` [Compound 686, K 185], which “Compound effect (percent receptor signaling in presence of test compound, relative lux units relative to the SCH23390 control)” value is on record?
The value was 80.

For `N=C(N)NC(=O)Cc1c(Cl)cccc1Cl` [Compound 548, Guanfacine hydrochloride], which “Compound effect (percent receptor signaling in presence of test compound, relative lux units relative to the SCH23390 control)” value is on record?
The value was 112.

Which “Compound effect (percent receptor signaling in presence of test compound, relative lux units relative to the SCH23390 control)” value does the source give for `N#C/C(=C\c1ccc(O)c(O)c1)C(=O)N1CCc2ccccc21` [Compound 1177, Tyrphostin AG 528] here?
Its value is 78.

How did the “Compound effect (percent receptor signaling in presence of test compound, relative lux units relative to the SCH23390 control)” value turn out when `O=C(NCC1CCCCN1)c1cc(OCC(F)(F)F)ccc1OCC(F)(F)F` (stereo not shown) [Compound 527, Flecainide acetate] was run?
The value was 111.

`CNCC[C@H](Oc1ccc(C(F)(F)F)cc1)c1ccccc1.Cl` [Compound 512, S-(+)-Fluoxetine hydrochloride] was tested. Which “Compound effect (percent receptor signaling in presence of test compound, relative lux units relative to the SCH23390 control)” value did it give?
Its value is 77.

With `COCC(=O)O[C@]1(CCN(C)CCCc2nc3ccccc3[nH]2)CCc2cc(F)ccc2[C@@H]1C(C)C` [Compound 779, Mibefradil dihydrochloride] as the compound, how does the “Compound effect (percent receptor signaling in presence of test compound, relative lux units relative to the SCH23390 control)” value read?
The value was 93.

Which “Compound effect (percent receptor signaling in presence of test compound, relative lux units relative to the SCH23390 control)” value does the source give for “R(-)-Propylnorapomorphine hydrochloride [Compound 436]” here?
Its value is 99.

With `C=C[C@@]1(C)CC(=O)[C@]2(O)[C@@]3(C)[C@@H](O)CCC(C)(C)[C@@H]3[C@H](O)[C@H](OC(C)=O)[C@@]2(C)O1` [Compound 529, Forskolin] as the compound, how does the “Compound effect (percent receptor signaling in presence of test compound, relative lux units relative to the SCH23390 control)” value read?
Its value is 46.

How did the “Compound effect (percent receptor signaling in presence of test compound, relative lux units relative to the SCH23390 control)” value turn out when `N#C/C(=C\c1ccc(O)c(O)c1)C(=O)NCCCc1ccccc1` [Compound 1180, Tyrphostin AG 555] was run?
Its value is 77.

With `COc1cccc(C(=O)NCCN2CCN(c3ccc(Cl)cc3)CC2)c1` [Compound 293, N-(2-[4-(4-Chlorophenyl)piperazin-1-yl]ethyl)-3-methoxybenzamide] as the compound, how does the “Compound effect (percent receptor signaling in presence of test compound, relative lux units relative to the SCH23390 control)” value read?
The value was 95.

How did the “Compound effect (percent receptor signaling in presence of test compound, relative lux units relative to the SCH23390 control)” value turn out when `CNC(=O)[C@H]1O[C@@H](n2cnc3c(NCc4cccc(I)c4)ncnc32)[C@H](O)[C@@H]1O` [Compound 676, IB-MECA] was run?
Its value is 105.

How did the “Compound effect (percent receptor signaling in presence of test compound, relative lux units relative to the SCH23390 control)” value turn out when `CC(C)(Oc1ccc(C2CC2(Cl)Cl)cc1)C(=O)O` (stereo not shown) [Compound 217, Ciprofibrate] was run?
The value was 97.

`O=C(Nc1cccc(C(=O)Nc2ccc(S(=O)(=O)O)c3cc(S(=O)(=O)O)cc(S(=O)(=O)O)c23)c1)Nc1cccc(C(=O)Nc2ccc(S(=O)(=O)O)c3cc(S(=O)(=O)O)cc(S(=O)(=O)O)c23)c1` [Compound 873, NF 023] was tested. Which “Compound effect (percent receptor signaling in presence of test compound, relative lux units relative to the SCH23390 control)” value did it give?
Its value is 94.

For `NC(=Nc1ccccc1)NC(=O)c1nc(Cl)c(N)nc1N` [Compound 1020, Phenamil methanesulfonate], which “Compound effect (percent receptor signaling in presence of test compound, relative lux units relative to the SCH23390 control)” value is on record?
The value was 46.

`CN(C)c1ccc(/C=C2\C(=O)Nc3ccccc32)cc1` [Compound 1121, SU 4312] was tested. Which “Compound effect (percent receptor signaling in presence of test compound, relative lux units relative to the SCH23390 control)” value did it give?
Its value is 51.

`CC(N)C(=O)OC(C)(C)Cc1ccc(Cl)cc1` (stereo not shown) [Compound 133, Alaproclate hydrochloride] was tested. Which “Compound effect (percent receptor signaling in presence of test compound, relative lux units relative to the SCH23390 control)” value did it give?
The value was 110.

How did the “Compound effect (percent receptor signaling in presence of test compound, relative lux units relative to the SCH23390 control)” value turn out when `NC(CP(=O)(O)O)C(=O)O` (racemic) [Compound 55, (±)-2-Amino-3-phosphonopropionic acid] was run?
The value was 102.

How did the “Compound effect (percent receptor signaling in presence of test compound, relative lux units relative to the SCH23390 control)” value turn out when `O=C1NC(c2cccc([N+](=O)[O-])c2)=CCN1c1ccccc1O` [Compound 443, Icilin] was run?
The value was 87.

Same assay, conditions: 10 µM compound, 300 nM dopamine, 2 hr; hit = compound effect <20

Which “Compound effect (percent receptor signaling in presence of test compound, relative lux units relative to the SCH23390 control)” value does the source give for `N[C@H](CCC(=O)NCS(=O)(=O)O)C(=O)O` [Compound 566, gamma-D-Glutamylaminomethylsulfonic acid] here?
Its value is 109%.

`Cc1ccc(/C(=C\CN2CCCC2)c2ccccn2)cc1.Cl` [Compound 1193, Triprolidine hydrochloride] was tested. Which “Compound effect (percent receptor signaling in presence of test compound, relative lux units relative to the SCH23390 control)” value did it give?
The value was 78%.

Which “Compound effect (percent receptor signaling in presence of test compound, relative lux units relative to the SCH23390 control)” value does the source give for `CNCCNS(=O)(=O)c1cccc2cnccc12.Cl.Cl` [Compound 811, H-8 dihydrochloride] here?
Its value is 43%.

Which “Compound effect (percent receptor signaling in presence of test compound, relative lux units relative to the SCH23390 control)” value does the source give for `CCN1CCC[C@H]1CNC(=O)c1c(OC)ccc(I)c1O` [Compound 675, S(-)-IBZM] here?
Its value is 85%.

For `CC(Cc1ccc(O)c(O)c1)C(C)Cc1ccc(O)c(O)c1` (stereo not shown) [Compound 856, Nordihydroguaiaretic acid from Larrea divaricata (creosote bush)], which “Compound effect (percent receptor signaling in presence of test compound, relative lux units relative to the SCH23390 control)” value is on record?
Its value is 64%.

How did the “Compound effect (percent receptor signaling in presence of test compound, relative lux units relative to the SCH23390 control)” value turn out when `COC1(C2=NCCN2)COc2ccccc2O1.Cl` (stereo not shown) [Compound 1058, RX 821002 hydrochloride] was run?
Its value is 121%.

Reference: paper PMC3265452 (PLoS Neglected Tropical Diseases, 2012)
